The source of these data is publication PMC8179138, “Ligand design by targeting a binding site water” (Chemical Science, 2020).

Series [1] addresses T1, hAR subtype A2A in HEK293 cells (Homo sapiens, UniProt P29274).
T1 construct: expressed in transfected cells
Briefly: Functional cAMP assay, A2AAR. It counts as cell-based. Conditions: for Emax at 10 µM: HEK293, stimulation of cAMP production at 10 μM, n=3, read-out: Maximum efficacy A2A (% activation); for A2AAR agonist activity in words: Gs-mediated cAMP production. (In general: cAMP levels reflect the balance of adenylyl cyclase and phosphodiesterase activity.)

For series [2], the target named is T2, human A2AAR (Homo sapiens, UniProt P29274). Further details: expressed in transfected cells. Particulars: cited from earlier work.
T2 sequence (P29274 whole entry): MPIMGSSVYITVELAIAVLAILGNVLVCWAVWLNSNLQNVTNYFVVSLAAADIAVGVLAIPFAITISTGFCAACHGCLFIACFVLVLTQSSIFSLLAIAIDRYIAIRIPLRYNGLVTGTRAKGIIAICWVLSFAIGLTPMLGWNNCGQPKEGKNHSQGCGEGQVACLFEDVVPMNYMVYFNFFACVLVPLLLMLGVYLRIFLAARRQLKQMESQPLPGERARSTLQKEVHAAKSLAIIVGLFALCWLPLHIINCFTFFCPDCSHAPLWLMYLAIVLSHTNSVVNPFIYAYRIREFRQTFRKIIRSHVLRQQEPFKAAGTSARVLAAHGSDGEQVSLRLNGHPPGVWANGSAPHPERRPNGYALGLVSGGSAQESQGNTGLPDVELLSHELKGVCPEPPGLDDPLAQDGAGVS
In series [3] the target is T3, human A3AR (Homo sapiens, UniProt P0DMS8).
T3 sequence (P0DMS8 1-318): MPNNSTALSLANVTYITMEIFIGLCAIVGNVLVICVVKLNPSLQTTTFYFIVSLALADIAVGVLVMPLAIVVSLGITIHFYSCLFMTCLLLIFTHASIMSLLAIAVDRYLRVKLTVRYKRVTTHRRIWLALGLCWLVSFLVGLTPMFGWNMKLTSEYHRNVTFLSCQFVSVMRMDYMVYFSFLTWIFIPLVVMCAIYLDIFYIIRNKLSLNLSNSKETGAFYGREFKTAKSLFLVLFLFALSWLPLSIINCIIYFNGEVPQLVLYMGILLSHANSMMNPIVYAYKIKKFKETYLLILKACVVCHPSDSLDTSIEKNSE
Set-up: expressed in transfected cells; method as in Rodriguez et al.3. Particulars: ref Rodriguez et al.3; cited from earlier work.

Another series concerns the target T4, human A1AR (Homo sapiens, UniProt P30542).
T4 sequence (P30542 1-326): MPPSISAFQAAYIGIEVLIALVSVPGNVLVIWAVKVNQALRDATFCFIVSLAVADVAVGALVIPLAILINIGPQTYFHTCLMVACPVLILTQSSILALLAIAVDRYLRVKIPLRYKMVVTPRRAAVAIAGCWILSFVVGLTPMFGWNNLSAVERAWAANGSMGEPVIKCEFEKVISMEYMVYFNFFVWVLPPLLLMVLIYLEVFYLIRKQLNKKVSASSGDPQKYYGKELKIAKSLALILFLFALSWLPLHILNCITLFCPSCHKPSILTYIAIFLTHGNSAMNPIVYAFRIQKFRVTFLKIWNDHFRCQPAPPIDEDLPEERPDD
Briefly: Radioligand binding assay, A1AR.

Series [4] addresses T3, human A3AR. The series is described as follows: Radioligand binding assay, A3AR.
Description: (§1) using 8-[4-[[[[(2-aminoethyl)amino]carbonyl]methyl]oxy]phenyl]-1,3-dipropylxanthin e (XAC) at 10 µM for A1 and A2A and 100 µM for A2B and A3. Binding parameters were calculated using Prism 8 software (GraphPAD, San Diego, CA, USA). IC50 values obtained from competition curves were converted to Ki values using the Cheng–Prusoff equation23.
(§2) Data are express ed as mean ± standard error.
Series [5] deals with T2, human A2AAR. The series is described as follows: Radioligand binding assay, A2AAR. Conditions: for A2AAR activity class (Active/Inactive) in Fig. 2: summary of binding and functional data.
Description: as §1, §2
In a further series the target is T5, human A2BAR (Homo sapiens, UniProt P29275).
T5 sequence (P29275 1-332): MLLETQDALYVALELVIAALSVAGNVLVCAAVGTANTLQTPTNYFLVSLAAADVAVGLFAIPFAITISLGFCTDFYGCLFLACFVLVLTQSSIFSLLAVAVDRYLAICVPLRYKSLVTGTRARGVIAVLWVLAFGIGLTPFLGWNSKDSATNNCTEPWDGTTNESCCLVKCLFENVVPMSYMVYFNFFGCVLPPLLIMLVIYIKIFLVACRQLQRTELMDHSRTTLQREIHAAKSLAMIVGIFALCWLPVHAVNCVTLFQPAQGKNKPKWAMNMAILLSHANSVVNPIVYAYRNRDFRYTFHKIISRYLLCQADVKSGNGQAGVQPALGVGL
The series is described as follows: Radioligand binding assay, A2BAR. Particulars: read-out: % Inhibition at 10µM A2B.

The target in series [6] is T6, hAR subtype A1 in HEK293 cells (Homo sapiens, UniProt P30542).
T6 sequence (P30542 1-326): T4 sequence (P30542 1-326)
Briefly: Functional cAMP assay, A1AR. It counts as cell-based.

In series [7] the target is T7, hAR subtype A2B in HEK293 cells (Homo sapiens, UniProt P29275).
T7 construct: expressed in transfected cells
T7 sequence (P29275 1-332): T5 sequence (P29275 1-332)
Briefly: Functional cAMP assay, A2BAR. It counts as cell-based.

In series [8] the target is T8, hAR subtype A3 in HEK293 cells (Homo sapiens, UniProt P0DMS8).
T8 construct: expressed in transfected cells
T8 sequence (P0DMS8 1-318): T3 sequence (P0DMS8 1-318)
Briefly: Functional cAMP assay, A3AR. The format is cell-based.

The subject of a further series is adenosine deaminase. Briefly: A2AAR activity in absence and presence of adenosine deaminase. The format is in vitro ADME. Particulars: concluded qualitatively from A2AAR activity without and with adenosine deaminase. The method, then: For compounds 3 and 4, both binding and functional assays at the A2AAR were carried out (Fig. 2). Experiments were also performed for the A1, A2B, and A3 subtypes (Fig. S1 and Table S1 ^†).

Where two headings read alike, the source gives them in different places.

T1 sequence (P29274 whole entry): as the sequence (P29274 whole entry) above
Description for human A1AR: as §1, §2
Description for human A2BAR: as §1, §2

In the case of `Nc1nccc2c1ncn2[C@@H]1O[C@H](CO)[C@@H](O)[C@H]1O` [Compound 2, 3-deazaadenosine], in [1], the Emax at 10 µM is 20 ± 4%. Besides, at human A2AAR [2] (10 µM, ref Rodriguez et al.3), the % Inhibition (in general, the share of the control response that was lost under treatment) at 10µM A2A is 24 ± 8%. In addition, the “A2AAR activity class (Active/Inactive) in Fig. 2” value at human A2AAR [2] (summary of binding and functional data) was “Inactive”. Further, the Ki (in general, the equilibrium dissociation constant of an inhibitor or competing ligand from its target) at human A2AAR [2] (very low affinity) was 39000 nM. The “% Inhibition at 10µM A3” value on human A3AR [3] is reported as 53 ± 11%.

For `Cc1cnc(N)c2ncn(C3OC(CO)C(O)C3O)c12` (stereo not drawn) [Compound 3], in [1], the “A2AAR agonist activity in words” value is “inactive”. Besides, the Emax at 10 µM in series [1] was 9 ± 1%. For the same compound, the inhibition – broadly, the relative decrease from the control value, in per cent – at 10 µM on human A1AR (read-out: % Inhibition at 10µM A1) was 48 ± 17%; on human A3AR [4] (read-out: % Inhibition at 10µM A3) it was 50 ± 2%; at human A2AAR [5] (read-out: % Inhibition at 10µM A2A) it was 13 ± 1%; at human A2BAR, 1 ± 1%. On human A2AAR [5] (10 µM, radioligand binding, n=3), the “% Inhibition at 10µM A2A” value is on record as “did not show significant displacement”. Besides, the “A2AAR activity class (Active/Inactive) in Fig. 2” value at human A2AAR [5] is recorded as “Inactive”.

`Nc1ncc(CO)c2c1ncn2C1OC(CO)C(O)C1O` (stereo not drawn) [Compound 4]: the “activation of A1 subtype in words” value in [6] is “activated”. The EC50 (commonly the concentration that produces a half-maximal response) stood at 180 ± 38 nM in series [6] (cAMP, HEK293, n=3); 732 nM in series [1] (cAMP production, HEK293, n=3); 318 ± 66 nM in series [8] (cAMP, HEK293, n=3). Further, the Emax is 101 ± 3% in [6] (cAMP, HEK293, n=3, read-out: Maximum efficacy A1); < 15% in series [7] (cAMP, HEK293, n=3, read-out: Maximum efficacy A2B); 97 ± 4% in [8] (cAMP, HEK293, n=3, read-out: Maximum efficacy A3). Besides, the “A2AAR agonist activity in words” value in series [1] was “full agonist”. In addition, in series [1], the Emax at 10 µM is 99 ± 3%. Also, the “activation of A2BAR in words” value in [7] was “not”. For the same compound, the “activation of A3 subtype in words” value in series [8] was “activated”. For the same compound, the “resistance to degradation by adenosine deaminase” value in the series on adenosine deaminase was “resistance”. The Ki at human A1AR is 31 ± 4 nM; at human A3AR [4] it was 280 ± 27 nM; at human A2AAR [5] it was 103 nM. The “A2AAR activity class (Active/Inactive) in Fig. 2” value at human A2AAR [5] was “Active”. Further, the inhibition at 10 µM at human A2BAR was determined as 29 ± 7%.
